One assay has as its target T1, PfCCT(528–795) (Plasmodium falciparum, UniProt P49587, DEL194-211).
T1 construct: previously described PfCCT(528–795) lacking the lysine-rich Plasmodium specific loop (720–737); His-tag; made in house
The assay can be described thus: Equilibrium ligand binding by isothermal titration calorimetry (ITC). The conditions noted are these: 20 °C. How it is done:
(§1) Calorimetric measurements were performed on an ITC 200 titration calorimeter (Malvern) at 20 °C. The protein samples were dialyzed against 20 mM HEPES/NaOH pH 7.5, 100 mM NaCl, including 0.5 mM Tris(2-carboxyethyl)phosphine (TCEP) as reducing agent. CTP and CDPCho were diluted from a concentrated stock into the dialysis buffer with subsequent pH adjustment. Concentration of the titrating nucleotide ligands were determined using molar extinction coefficients 9000 M^−1 cm^−1 at 271 nm for CTP and 5000 M^−1 cm^−1 at 260 nm for CDPCho[16]. In the experimental setup, the cell of the instrument was filled with protein and the syringe with the ligand. The titrations typically included 19 steps of injection with 2 μl of ligand per injection spaced 180 s apart from each other, with the injection syringe rotating at 750 r.p.m. The data were analyzed using MICROCAL ORIGIN software following the directions of the manufacturer. To account for dilution, the invariant integrated heat value of the last 3–5 data points was subtracted from all data points. The one set of independent sites binding model was applied to data for determination of thermodynamic parameters: dissociation constant (Kd), stoichiometry (N), enthalpy (ΔH) and entropy (ΔS). Due to the low apparent affinity, the N value was fixed to a constant value of 1 in CTP titrations to PfCCT(528–795) K663A according to the low c value ITC data analysis protocol[40],[41]. For CTP and CDPCho titrations of PfCCT(528–795) K663A, and CTP titrations of T761A and T762A variants of PfCCT(528-795), mean and SD from two independent experiments are provided, whereas for CDPCho titrations of PfCCT(581–775) and PfCCT(528-795) mean and SD from three independent experiments are provided. For PfCCT(528-795) (Y626F/Q636A), errors of model fit to data of a single ligand binding experiment are given.

Assay [1] concerns the target T2, PfCCT(528–795) K663A (Plasmodium falciparum, UniProt Q8IEE9, DEL720-737/K663A). The description is as above. The settings on record: 20 °C. As for the experimental part: as §1
In assay [2] the target is PfCCT(528–795) Y626F/Q636A (Plasmodium falciparum, UniProt Q8IEE9, DEL720-737/Q636A/Y626F). Described as above. The conditions noted are these: 20 °C, pH 7.5, single experiment, errors of model fit. As for the experimental part: as §1
Assay [3] concerns the target T2, PfCCT(528–795) K663A. Kind of assay: Continuous coupled colorimetric enzyme activity assay (PPase/PNP/MESG). The class given is biochemical. The settings on record: refers to a phosphohydrolase activity; ChoP fixed 5 mM; read-out: KM,CTP. The source says:
The presence of Cho in the active site at least partially stabilizes the K663 side chain, while ChoP or CDPCho accommodation renders this residue fully visualized. The K663 terminal amino moiety points towards the phosphate group of ChoP or both phosphate moieties of CDPCho, in somewhat different conformations (Fig. 3e and Supplementary Fig. S3). These structural insights showing variable detection and interactions of K663 prompted us to an in-depth definition of its role throughout the course of the catalytic mechanism. We interrogated the functionality of this residue by site directed mutagenesis followed by biochemical analysis. […] The enzymatic activity was monitored by a coupled pyrophosphatase (PPase) assay and consisted of two consecutive steps: the cleavage of the byproduct pyrophosphate into two phosphates and the addition of phosphates to a nucleotide derivative, resulting a chromophore substance. […] The accumulation of free phosphate in the absence of the substrate, ChoP, argued for a CTP phosphohydrolase (CTP → CDP + Pi) activity of the K663A mutant (Supplementary Fig. S4). […] For reliable characterization of ligand interactions of this lysine, we measured the equilibrium ligand binding of CDPCho and CTP to PfCCT(528–795) K663A (Table 2 and Supplementary Fig. S4). […]

Each structure is given as a SMILES string.

T2 sequence (Q8IEE9 528-795, stated change not applied): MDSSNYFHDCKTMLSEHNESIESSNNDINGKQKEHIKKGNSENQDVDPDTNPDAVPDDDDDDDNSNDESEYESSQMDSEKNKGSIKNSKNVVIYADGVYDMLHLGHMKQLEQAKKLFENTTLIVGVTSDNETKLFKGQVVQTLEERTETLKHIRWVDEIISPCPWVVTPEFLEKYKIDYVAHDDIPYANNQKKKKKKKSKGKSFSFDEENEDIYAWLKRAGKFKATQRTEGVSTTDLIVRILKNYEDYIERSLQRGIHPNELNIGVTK
PfCCT(528–795) Y626F/Q636A, sequence (Q8IEE9 528-795, stated change not applied): as above

In general, Kd refers to the free concentration of one partner at which half of the binding sites on the other are occupied at equilibrium, for simple one-to-one binding. Usually Km stands for the substrate concentration at which the rate is half of its maximum. On to `Nc1ccn([C@@H]2O[C@H](COP(=O)(O)OP(=O)(O)OP(=O)(O)O)[C@@H](O)[C@H]2O)c(=O)n1` [CTP], for which the ΔGCTP is -5.7 ± 0.1 kcal/mol at PfCCT(528–795) (pH 7.5); -4.4 ± 0.1 kcal/mol on PfCCT(528–795) K663A [1] (pH 7.5, N fixed to 1); -5.7 ± 0.1 kcal/mol in assay [2]. Besides, the figures for the ΔHCTP (on PfCCT(528–795) (pH 7.5); in assay [2]) were -8.6 ± 0.3 kcal/mol and -10.8 ± 0.1 kcal/mol, respectively. Moreover, the “−TΔSCTP” value was 3.0 ± 0.4 kcal/mol at PfCCT(528–795) (pH 7.5); -10.5 ± 0.6 kcal/mol on PfCCT(528–795) K663A [1] (pH 7.5, N fixed to 1); 5.1 ± 0.2 kcal/mol in assay [2]. The Kd on PfCCT(528–795) (pH 7.5, read-out: Kd,CTP) is 60 ± 2 µM; at PfCCT(528–795) K663A [1] (pH 7.5, N fixed to 1 (low c value protocol), read-out: Kd,CTP) it was 520 ± 50 µM; in assay [2] (read-out: Kd,CTP), 60 ± 2 µM. The Michaelis-Menten constant (Km) on PfCCT(528–795) K663A [3] was determined as 70 ± 20 µM.

The values are drawn from paper PMC6060094, “Structural determinants of the catalytic mechanism of Plasmodium CCT, a key enzyme of malaria lipid biosynthesis” (Scientific Reports, 2018).
